The record followed here is patent US10562893B2, “Benzimidazoles derivatives as Tec kinases family inhibitors” (GB005, Inc., priority 2015, dated 2020).

In this assay the test system is Human PBMCs. As to the kind of experiment: CD3/CD28 mediated PBMC proliferation assay. Type of assay: cell-based. Particulars: proliferation of human PBMCs stimulated with anti-CD3 and anti-CD28, 72 hours, Cell Titer-Glo. The protocol: Inhibition of cellular ITK was assessed by measuring proliferation of PBMCs following stimulation with anti-CD3 and anti-CD28 antibodies. Individual wells of 96 well tissue culture plates were coated with 50 μL of 5 μg/mL anti-CD3 (OKT3, eBiosciences) for 2 hours at 37° C. Human PBMCs (Stemcell Technologies catalog #70025.3) were plated in 96-well plates at a final concentration of 9.2×10e5 cells/mL in complete media (RPMI, 10% heat inactivated FBS, 55 uM β-mercaptoethanol) and pre-treated with compound curves for 30 minutes at 37° C., 5% CO2. Pre-treated cells plus compounds were transferred to washed anti-CD3 coated plates. Soluble anti-CD28 (CD28.2 eBiosciences) was added to each well at a final concentration of 2 μg/mL. The cells were placed in a humidified 37° C. incubator with 5% CO2 for 72 hours and metabolic viability was measured by quantification of ATP levels with Cell Titer-Glo (Promega catalog # G9242). Controls included unstimulated cells and vehicle alone. EC50 values (50% proliferation in the presence of compound as compared to vehicle treated controls) were calculated from dose response compound curves using GraphPad Prism Software.

In general, EC50 refers to the concentration giving half of the maximal effect. Read a high EC50 as lower potency in that assay. The compound `C=CC(=O)Nc1cccc(-n2c(NC(=O)c3ccc(C(F)F)s3)nc3cc(CN[C@H]4CC[C@@H](OCCOC)CC4)ccc32)c1` [Compound 60] displayed an EC50 below 10 nM. `C=CC(=O)Nc1cccc(-n2c(NC(=O)c3ccc(C(F)F)s3)nc3cc(CNCCCOCCOCCCNC(C)=O)ccc32)c1` [Compound 66] registered an EC50 of 10 to 100 nM.

The compound `C=CC(=O)N[C@H]1C[C@@H](n2c(NC(=O)c3ccc(C(F)F)s3)nc3cc(NC(=O)C4CCCCC4)ccc32)C1` [Compound 64] showed a concentration giving a half-maximal response (EC50) above 100 nM. The same measure for `C=CC(=O)N1CCc2ccc(-n3c(NC(=O)c4ccc(C(F)F)s4)nc4cc(CN[C@@H](C)C(C)(C)C)ccc43)cc21` [Compound 56]: 10 to 100 nM. To `C=CC(=O)Nc1cccc(-n2c(NC(=O)c3ccc(C(F)F)s3)nc3cc(C(=O)NC4CCCCC4)ccc32)c1` [Compound 53] belongs 10 to 100 nM; to `C=CC(=O)Nc1cccc(-n2c(NC(=O)c3ccno3)nc3cc(CN[C@H]4CC[C@H](O)CC4)ccc32)c1` [Compound 74], above 100 nM. To `C=CC(=O)Nc1cccc(-n2c(NC(=O)c3ccc(C(F)F)s3)nc3cc(CN4CCC[C@@H]4CO)ccc32)c1` [Compound 44] belongs below 10 nM; to `C=CC(=O)Nc1cccc(-n2c(NC(=O)c3ccc(C(F)F)s3)nc3cc(C(=O)N(C)C4CCCCC4)ccc32)c1` [Compound 48], 10 to 100 nM. With `C=CC(=O)N[C@H]1CC[C@@H](n2c(NC(=O)c3cccnc3)nc3cc(CN[C@@H](C)C(C)(C)C)ccc32)CC1` [Compound 55], the half-maximal effective concentration (EC50) is above 100 nM. The same measure for `C=CC(=O)Nc1cccc(-n2c(NC(=O)c3ccc(C(F)F)s3)nc3cc(CN[C@H](CO)C(C)(C)C)ccc32)c1` [Compound 47]: below 10 nM; for `C=CC(=O)Nc1cccc(-n2c(NC(=O)c3ccc(C(F)F)s3)nc3cc(OCc4ccccc4)ccc32)c1` [Compound 79]: above 100 nM; for `C/C=C/C(=O)Nc1cccc(-n2c(NC(=O)c3ccc(C(F)F)s3)nc3cc(CN[C@@H](C)C(C)(C)C)ccc32)c1` [Compound 83]: above 100 nM. The same measure for `C=CC(=O)N[C@H]1C[C@@H](n2c(NC(=O)c3ccc(C(F)F)s3)nc3cc(C(=O)N(C)C4CCCCC4)ccc32)C1` [Compound 65]: above 100 nM; for `C=CC(=O)N[C@H]1C[C@@H](n2c(NC(=O)c3ccc(C(F)F)s3)nc3cc(C(=O)NC4CCCCC4)ccc32)C1` [Compound 70]: above 100 nM. The same measure for `C=CC(=O)N[C@H]1CC[C@@H](n2c(NC(=O)c3ccc(-c4cnco4)s3)nc3cc(CN[C@@H](C)C(C)(C)C)ccc32)CC1` [Compound 71]: 10 to 100 nM; for `C=CC(=O)Nc1cccc(-n2c(NC(=O)c3cnn(C)c3)nc3cc(CN[C@@H](C)C(C)(C)C)ccc32)c1` [Compound 49]: above 100 nM; for `C=CC(=O)N(C)[C@H]1CC[C@@H](n2c(NC(=O)c3ccc(C(F)F)s3)nc3cc(CN[C@@H](C)C(C)(C)C)ccc32)CC1` [Compound 58]: above 100 nM. Turning to `C=CC(=O)Nc1cccc(-n2c(NC(=O)c3ccc(C(F)F)s3)nc3cc(CN[C@H]4CC[C@H](OCCOC)CC4)ccc32)c1` [Compound 51], the concentration for a half-maximal effect (EC50) was below 10 nM. The same measure for `C=CC(=O)Nc1cccc(-n2c(NC(=O)c3ccc(C(F)F)s3)nc3cc(CN4CCC[C@H]4CO)ccc32)c1` [Compound 45]: below 10 nM; for `C=CC(=O)N[C@H]1C[C@@H](n2c(NC(=O)c3ccc(C(F)F)s3)nc3cc(N(C)C(=O)C4CCCCC4)ccc32)C1` [Compound 63]: above 100 nM; for `C=CC(=O)Nc1cccc(-n2c(NC(=O)c3ccc(C(F)F)s3)nc3cc(CN4C[C@@H](C)O[C@@H](C)C4)ccc32)c1` [Compound 61]: below 10 nM.

Consider `C=CC(=O)Nc1cccc(-n2c(NC(=O)c3ccns3)nc3cc(CN[C@H]4CC[C@H](O)CC4)ccc32)c1` [Compound 75], for which the EC50 is above 100 nM.

Regarding `C=CC(=O)Nc1cccc(-n2c(NC(=O)c3ccc(C(F)F)s3)nc3cc(CNCCOCCOC)ccc32)c1` [Compound 46], the concentration giving a half-maximal response (EC50) fell in the range of 10 to 100 nM.
